Where a name gives a salt, the structure may show the parent alone.

T1 sequence (P56817 22-460): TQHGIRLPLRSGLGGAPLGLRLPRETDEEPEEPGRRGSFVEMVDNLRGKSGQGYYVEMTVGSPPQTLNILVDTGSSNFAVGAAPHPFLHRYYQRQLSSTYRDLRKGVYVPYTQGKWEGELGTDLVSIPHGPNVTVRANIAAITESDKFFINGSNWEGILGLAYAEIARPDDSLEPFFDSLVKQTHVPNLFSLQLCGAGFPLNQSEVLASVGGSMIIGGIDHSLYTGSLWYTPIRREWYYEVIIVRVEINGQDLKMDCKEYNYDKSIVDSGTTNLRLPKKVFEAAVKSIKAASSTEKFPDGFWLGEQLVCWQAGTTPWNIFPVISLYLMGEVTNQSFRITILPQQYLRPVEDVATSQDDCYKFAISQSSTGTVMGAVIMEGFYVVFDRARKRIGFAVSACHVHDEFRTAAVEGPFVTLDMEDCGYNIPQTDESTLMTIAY

This experiment addresses T1, human β-Secretase (soluble part, AA1-AA460; sBACE-Fc) (Homo sapiens, UniProt P56817).
T1 construct: The soluble part of the human β-Secretase (AA1-AA460) was cloned into the ASP2-Fc10-1-IRES-GFP-neoK mammalian expression vector; made in house
The experiment is described as follows: TR-FRET assay. The following applies: substrate (Europium)CEVNLDAEFK(Qsy7) 100 nM, pH 4.5, 15 min at RT; read-out: IC50 (nM) in TR-FRET assay. The experiment is classed as biochemical.
Broadly, the IC50 is the midpoint of a concentration-inhibition curve. Regarding `Cc1nn(C)c(Cl)c1S(=O)(=O)Oc1cccc(C2(c3ccc(F)c(-c4cncnc4)c3)N=C(N)N(C)C2=O)c1` (centres unmarked) [Example 241, 3-[2-Amino-4-(4-fluoro-3-pyrimidin-5-ylphenyl)-1-methyl-5-oxo-4,5-dihydro-1H-imidazol-4-yl]phenyl 5-chloro-1,3-dimethyl-1H-pyrazole-4-sulfonate], the IC50 was found to be 20 nM. The figure for `CCCS(=O)(=O)Oc1cccc(C2(c3ccc(F)c(-c4cncc(OC)c4)c3)N=C(N)N(C)C2=O)c1` (centres unmarked) [Example 130, 3-{2-Amino-4-[4-fluoro-3-(5-methoxypyridin-3-yl)phenyl]-1-methyl-5-oxo-4,5-dihydro-1H-imidazol-4-yl}phenyl propane-1-sulfonate hydrochloride] is 59 nM; for `COc1cc(OS(C)(=O)=O)cc(-c2cccc(C3(c4ccc(OC)c(C(F)(F)F)c4)N=C(N)N(C)C3=O)c2)c1` (centres unmarked) [Example 60, 3′-{2-Amino-4-[4-methoxy-3-(trifluoromethyl)phenyl]-1-methyl-5-oxo-4,5-dihydro-1H-imidazol-4-yl}-5-methoxybiphenyl-3-yl methanesulfonate] it is 25 nM. On to `CCCS(=O)(=O)Oc1cccc(C2(c3ccc(F)c(-c4cccc(Cl)c4)c3)N=C(N)N(C)C2=O)c1` (centres unmarked) [Example 98, 3-[2-Amino-4-(3′-chloro-6-fluorobiphenyl-3-yl)-1-methyl-5-oxo-4,5-dihydro-1H-imidazol-4-yl]phenyl propane-1-sulfonate], for which the IC50 was found to be 239 nM.

On to `CCCS(=O)(=O)Oc1cccc(C2(c3ccc(F)c(-c4cc(Cl)cnc4F)c3)N=C(N)N(C)C2=O)c1` (centres unmarked) [Example 95, 3-{2-Amino-4-[3-(5-chloro-2-fluoropyridin-3-yl)-4-fluorophenyl]-1-methyl-5-oxo-4,5-dihydro-1H-imidazol-4-yl}phenyl propane-1-sulfonate], for which the IC50 amounted to 352 nM. Regarding `CCCS(=O)(=O)Oc1cccc(C2(c3ccc(F)c(-c4cccc(OC)c4)c3)N=C(N)N(C)C2=O)c1` (centres unmarked) [Example 101, 3-[2-Amino-4-(6-fluoro-3′-methoxybiphenyl-3-yl)-1-methyl-5-oxo-4,5-dihydro-1H-imidazol-4-yl]phenyl propane-1-sulfonate], the IC50 worked out at 180 nM.

Regarding `Cc1nn(C)c(Cl)c1S(=O)(=O)Oc1ccc(C2(c3ccc(F)c(-c4cccnc4)c3)N=C(N)N(C)C2=O)cc1` (centres unmarked) [Example 285, 4-[2-Amino-4-(4-fluoro-3-pyridin-3-ylphenyl)-1-methyl-5-oxo-4,5-dihydro-1H-imidazol-4-yl]phenyl 5-chloro-1,3-dimethyl-1H-pyrazole-4-sulfonate 0.25 acetate], the IC50 was found to be 122 nM. Turning to `CN1C(=O)C(c2ccc(OS(C)(=O)=O)cc2)(c2ccc(F)c(C3=CCCCC3)c2)N=C1N` (centres unmarked) [Example 299, 4-[2-Amino-4-(3-cyclohex-1-en-1-yl-4-fluorophenyl)-1-methyl-5-oxo-4,5-dihydro-1H-imidazol-4-yl]phenyl methanesulfonate 0.5 acetate], the IC50 came out at 330 nM. With `CCc1cc(C2(c3ccc(F)c(-c4cc(OC)cc(OS(C)(=O)=O)c4)c3)N=C(N)N(C)C2=O)cc(CC)n1` (centres unmarked) [Example 209, 5′-[2-Amino-4-(2,6-diethylpyridin-4-yl)-1-methyl-5-oxo-4,5-dihydro-1H-imidazol-4-yl]-2′-fluoro-5-methoxybiphenyl-3-yl methanesulfonate hydrochloride], the IC50 is 99 nM.

Take `CN1C(=O)C(c2ccc(OS(=O)(=O)C(F)(F)F)cc2)(c2ccc(F)c(-c3cncc(F)c3)c2)N=C1N` (centres unmarked) [Example 145, 4-{2-amino-4-[4-fluoro-3-(5-fluoropyridin-3-yl)phenyl]-1-methyl-5-oxo-4,5-dihydro-1H-imidazol-4-yl}phenyl trifluoromethanesulfonate 0.5 acetate]: the IC50 worked out at 150 nM. The figure for `CN1C(=O)C(c2ccc(OS(C)(=O)=O)cc2)(c2ccc(F)c(-c3cncs3)c2)N=C1N` (centres unmarked) [Example 188, 4-{2-Amino-4-[4-fluoro-3-(1,3-thiazol-5-yl)phenyl]-1-methyl-5-oxo-4,5-dihydro-1H-imidazol-4-yl}phenyl methanesulfonate hydrochloride] is 379 nM; for `CCN1C(=O)C(c2ccc(OS(C)(=O)=O)cc2)(c2ccc(F)c(-c3cncnc3)c2)N=C1N` (centres unmarked) [Example 162, 4-[2-Amino-4-(4-fluoro-3-pyrimidin-5-ylphenyl)-1-ethyl-5-oxo-4,5-dihydro-1H-imidazol-4-yl]phenyl methanesulfonate] it is 682 nM.

On to `CCC(C)(C)c1ccc(S(=O)(=O)Oc2ccc(C3(c4ccc(F)c(-c5cncnc5)c4)N=C(N)N(C)C3=O)cc2)cc1` (centres unmarked) [Example 276, 4-[2-Amino-4-(4-fluoro-3-pyrimidin-5-ylphenyl)-1-methyl-5-oxo-4,5-dihydro-1H-imidazol-4-yl]phenyl 4-(1,1-dimethylpropyl)benzenesulfonate], for which the IC50 was 183 nM. For the compound `Cc1cc(C2(c3ccc(F)c(-c4cc(Cl)cc(OS(C)(=O)=O)c4)c3)N=C(N)N(C)C2=O)ccn1` (centres unmarked) [Example 307, 5′-(2-Amino-1-methyl-4-(2-methylpyridin-4-yl)-5-oxo-4,5-dihydro-1H-imidazol-4-yl)-5-chloro-2′-fluorobiphenyl-3-yl methanesulfonate hydrochloride], the IC50 was 104 nM. For `CN1C(=O)C(c2ccc(OS(C)(=O)=O)cc2)(c2ccc(F)c(CCC3CC3)c2)N=C1N` (centres unmarked) [Example 79, 4-{2-Amino-4-[3-(2-cyclopropylethyl)-4-fluorophenyl]-1-methyl-5-oxo-4,5-dihydro-1H-imidazol-4-yl}phenyl methanesulfonate], the IC50 turned out to be 552 nM.

In the case of `CCN1C(=O)C(c2ccc(OS(C)(=O)=O)cc2)(c2ccc(F)c(-c3cccc(OC)c3)c2)N=C1N` (centres unmarked) [Example 163, 4-[2-Amino-4-(6-fluoro-3′-methoxybiphenyl-3-yl)-1-ethyl-5-oxo-4,5-dihydro-1H-imidazol-4-yl]phenyl methanesulfonate 0.25acetate], the IC50 is 395 nM. In the case of `CCCS(=O)(=O)Oc1cccc(C2(c3ccc(F)c(-c4cccnc4F)c3)N=C(N)N(C)C2=O)c1` (centres unmarked) [Example 96, 3-{2-Amino-4-[4-fluoro-3-(2-fluoropyridin-3-yl)phenyl]-1-methyl-5-oxo-4,5-dihydro-1H-imidazol-4-yl}phenyl propane-1-sulfonate], the IC50 came out at 242 nM. With `CN1C(=O)C(c2cccc(OS(=O)(=O)c3ccc(-n4cccn4)cc3)c2)(c2ccc(F)c(-c3cncnc3)c2)N=C1N` (centres unmarked) [Example 238, 3-[2-Amino-4-(4-fluoro-3-pyrimidin-5-ylphenyl)-1-methyl-5-oxo-4,5-dihydro-1H-imidazol-4-yl]phenyl 4-(1H-pyrazol-1-yl)benzenesulfonate], the IC50 came to 46 nM. On to `CN1C(=O)C(c2cccc(OS(=O)(=O)c3ccccn3)c2)(c2ccc(F)c(Br)c2)N=C1N` (centres unmarked) [Example 226, 3-[2-Amino-4-(3-bromo-4-fluorophenyl)-1-methyl-5-oxo-4,5-dihydro-1H-imidazol-4-yl]phenyl pyridine-2-sulfonate], for which the IC50 worked out at 859 nM.

`CN1C(=O)C(c2cccc(OS(=O)(=O)N(C)C)c2)(c2ccc(F)c(-c3cccnc3F)c2)N=C1N` (centres unmarked) [Example 110, 3-{2-Amino-4-[4-fluoro-3-(2-fluoropyridin-3-yl)phenyl]-1-methyl-5-oxo-4,5-dihydro-1H-imidazol-4-yl}phenyldimethylsulfamate]: the IC50 was found to be 114 nM.

Values taken from patent US20080176862A1, “New Compounds 617” (ASTRAZENECA AB, priority 2006, published 2008).
